Laboratory results taken from US20230123334A1, “AMINO LIPID COMPOUND, PREPARATION METHOD THEREFOR, AND APPLICATION THEREOF” (SHENZHEN SHENXIN BIOTECHNOLOGY CO., LTD., priority 2020, published 2023).

How the values were obtained:
HEK293 cells [1] = experiment: Preliminary screening as mRNA vectors, EGFP mRNA transfection of HEK293 cells; assay type: cell-based; settings: HEK293 cells, 96-well plates, EGFP mRNA 50 ng per well; percentage of GFP fluorescent cells relative to total number of cells (Hoechst)
Method in brief: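 HEK293 cells in DMEM plus 10% FBS transfected in 96-well format with 50 ng EGFP mRNA per well; Lipofectamine2000 served as positive control. Read-out is the percentage of GFP-fluorescent cells among total cells, counted by Hoechst nuclear stain.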

HEK293 cells [2] = experiment: Preliminary screening as DNA vectors, GFP transfection of HEK293 cells; assay type: cell-based; settings: HEK293 cells; lipid/DOPE liposome with 75 ng plasmid DNA (psin-EGFP-IRES-Puro); number of cells expressing GFP divided by total number of nuclei (Hoechst)
Method in brief: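 HEK293 cells in DMEM/10% FBS transfected with 75 ng EGFP plasmid per well complexed with amino lipid/DOPE liposomes in pH 5.6 sodium acetate. Hoechst nuclear stain added 20-24 h post-transfection, then cells cultured another 20-24 h. Confocal imaging gives GFP-positive cells as % of total nuclei.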

SMILES	Absolute mRNA transfection efficiency in HEK293 cells (HEK293 cells [1])	Absolute DNA transfection efficiency in HEK293 cells (HEK293 cells [2])
CCCCCCCCCCCCCCCNc1nc(NCCCCCCCCCCC)nc(NCCCN2CCN(C)CC2)n1 [Compound N11N15D9]	0.3%	0.1%
CCCCCCCCCCCCCCCNc1nc(NCCCCCC)nc(NCCCN(C)C)n1 [Compound N6N15D6]	0.3%	0.3%
CCCCCCCCCCCCCCSc1nc(NCCN(C)C)nc(SCCCCCCCCCCC)n1 [Compound S11S14D1]	1.9%	2.0%
CCCCCCCCCCCNc1nc(NCCCCCC)nc(NCCN2CCCC2)n1 [Compound N6N11D3]	0.9%	0.3%
CCCCCCCCCCSc1nc(NCCN2CCN(C)CC2)nc(SCCCCCCCCC)n1 [Compound S9S10D5]	61.4%	27.6%
CCCCCCCCCCCCCCCCSc1nc(NCCCN2CCN(C)CC2)nc(SCCCCCCCCCCC)n1 [Compound S11S16D9]	16.4%	3.6%
CCCCCCCCCCCCCCCCCCSc1nc(NCCCN2CCN(C)CC2)nc(SCCCCCCCCCCCCCC)n1 [Compound S14S18D9]	0.6%	0.5%
CCCCCCCCCCCCCCCNc1nc(NCCCCCCCCCCCCC)nc(NCCN2CCCCC2)n1 [Compound N13N15D4]	0.0%	0.0%
CCCCCCCCCCCCCCCCCCSc1nc(NCCN2CCCC2)nc(SCCCCCCCCCCCCCCCCCC)n1 [Compound S18S18D3]	0.1%	0.1%
CCCCCCCCCCCCCCCCNc1nc(NCCCCCCCCCCCCCCCC)nc(NCCCN2CCN(C)CC2)n1 [Compound N16N16D9]	0.0%	1.9%
CCCCCCCCCCCCCNc1nc(NCCCCCCCC)nc(NCC2CCN(C)CC2)n1 [Compound N8N13D10]	1.9%	2.1%
CCCCCCCCCCCCCCCNc1nc(NCCCCCCCCCCCC)nc(NCCCN2CCOCC2)n1 [Compound N12N15D8]	0.9%	1.4%
CCCCCCCCCCCCNc1nc(NCCCCCCCCCCCC)nc(NCCN(C)C)n1 [Compound N12N12D1]	0.2%	0.1%
CCCCCCCNc1nc(NCCCCCC)nc(NCCN2CCCCC2)n1 [Compound N6N7D4]	0.0%	0.0%
CCCCCCCCCCCCNc1nc(NCCN(CC)CC)nc(N(CCCCCCCCCCCC)CCCCCCCCCCCC)n1 [N12^2N12D7]	2.0%	2.2%
CCCCCCCCCCCCCCCCNc1nc(NCCN2CCCC2)nc(N(CCCCCCCCCCCC)CCCCCCCCCCCC)n1 [N16^2N12D3]	4.0%	2.0%
CCCCCCCCCCCCNc1nc(NCCCCCCCC)nc(NCCN2CCOCC2)n1 [Compound N8N12D2]	0.0%	0.0%
CCCCCCCCCCCCSc1nc(NCCN(C)C)nc(SCCCCCCCCCCC)n1 [Compound S11S12D1]	4.7%	2.3%
CCCCCCCCCCCCCCCCCCNc1nc(NCCCCCCC)nc(NCCCN(C)C)n1 [Compound N7N18D6]	1.1%	0.7%
CCCCCCCCCCCCCCCCCCSc1nc(NCCN2CCOCC2)nc(SCCCCCCCC)n1 [Compound S8S18D2]	0.0%	0.9%
